The target in this experiment is human GPR40 receptor (Homo sapiens, UniProt O14842). Description: Assay II: IP1 accumulation (IPOne HTRF) in 1321N1 cells stably expressing human GPR40. It counts as cell-based. As to conditions: 1321N1 cells expressing human GPR40, stimulation 1 h at 37° C., 5% CO2, LiCl 50 mM. The method, then: IP1 accumulation measurements using the IPOne assay system—1321N1 cells stably expressing human GPR40 receptor (Euroscreen, Belgium) are seeded 24 h before the assay in white 384-well plates in culture medium containing 10% FCS, 1% Na-Pyruvate and 400 μg/mL G418. IP1 is assayed according to the manufacturers description (Cisbio Bioassays, France). In brief, the assay is started by substitution of the culture medium by stimulation buffer (Hepes 10 mM, CaCl2 1 mM, MgCl2 0.5 mM, KCl 4.2 mM, NaCl 146 mM, glucose 5.5 mM and LiCl 50 mM, pH 7.4). Cells are stimulated for 1 h at 37° C., 5% CO2 by addition of the compounds that are diluted in stimulation buffer containing LiCl. Assays are stopped by adding HTRF-conjugates (IP1-d2 and Anti-IP1 cryptate Tb) and lysis buffer, provided by the manufacturer. After an incubation time of 1 h at room temperature plates are measured using an EnVision™, Perkin Elmer. The obtained fluorescence ratios at 665/615 nM are then used to calculate the pEC50 values using Assay Explorer 3.3 Software (Accelrys, Inc.) by interpolation using an IP1 reference curve and subsequent sigmoidal curve fitting allowing for a variable hill slope.
(In TR-FRET formats the signal depends on donor and acceptor labels being close together.)

The text below walks through data of US8642585B2, “Indanyloxydihydrobenzofuranylacetic acids” (Boehringer Ingelheim International GmbH, priority 2012, dated 2014).

Sequence of human GPR40 receptor (O14842 whole entry): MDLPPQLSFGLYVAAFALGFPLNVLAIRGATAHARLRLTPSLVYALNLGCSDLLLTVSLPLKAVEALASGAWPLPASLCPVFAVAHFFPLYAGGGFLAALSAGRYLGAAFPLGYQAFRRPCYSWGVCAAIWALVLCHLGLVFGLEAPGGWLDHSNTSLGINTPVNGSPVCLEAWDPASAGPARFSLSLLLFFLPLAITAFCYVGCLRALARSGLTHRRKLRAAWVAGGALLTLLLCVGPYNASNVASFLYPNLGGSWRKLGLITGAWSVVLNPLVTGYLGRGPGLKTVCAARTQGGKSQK

A word on the EC50: it is the concentration at which the effect is half-maximal. Lower therefore signals an effect from little substance. Consider `Cc1cc(-n2cncn2)cc(C)c1-c1ccc(F)c2c1CC[C@H]2Oc1ccc2c(c1)OC[C@H]2CC(=O)O` [Example 86, 2-((S)-6-((R)-4-(2,6-Dimethyl-4-(1H-1,2,4-triazol-1-yl)phenyl)-7-fluoro-2,3-dihydro-1H-inden-1-yloxy)-2,3-dihydrobenzofuran-3-yl)acetic acid], for which the EC50 was 8 nM.
Molecule `Cc1cc(O[C@H]2CCCN(S(C)(=O)=O)C2)cc(C)c1-c1ccc(F)c2c1CC[C@H]2Oc1ccc2c(c1)OC[C@H]2CC(=O)O` [Example 50, ((S)-6-{(R)-7-Fluoro-4-[4-((S)-1-methanesulfonyl-piperidin-3-yloxy)-2,6-dimethyl-phenyl]-indan-1-yloxy}-2,3-dihydro-benzofuran-3-yl)-acetic acid] displayed an EC50 of 20 nM.
`Cc1cc(-c2ccccn2)cc(C)c1-c1ccc(F)c2c1CC[C@H]2Oc1ccc2c(c1)OC[C@H]2CC(=O)O` [Example 137, {(S)-6-[(R)-4-(2,6-Dimethyl-4-pyridin-2-yl-phenyl)-7-fluoro-indan-1-yloxy]-2,3-dihydro-benzofuran-3-yl}-acetic acid] registered an EC50 of 2 nM.
With `COCc1cc(OCC2(C)COC2)cc(COC)c1-c1ccc(F)c2c1CC[C@H]2Oc1ccc2c(c1)OC[C@H]2CC(=O)O` [Example 82, 2-((S)-6-((R)-4-(2,6-Bis(methoxymethyl)-4-((3-methyloxetan-3-yl)methoxy)phenyl)-7-fluoro-2,3-dihydro-1H-inden-1-yloxy)-2,3-dihydrobenzofuran-3-yl)acetic acid], the concentration giving a half-maximal response (EC50) was found to be 14 nM.
As to `Cc1cc(-c2nccn2C)cc(C)c1-c1ccc(F)c2c1CC[C@H]2Oc1ccc2c(c1)OC[C@H]2CC(=O)O` [Example 144, {(S)-6-[(R)-4-(2,6-Dimethyl-4-(1-methyl-imidazol-2-yl)-phenyl)-7-fluoro-indan-1-yloxy]-2,3-dihydro-benzofuran-3-yl}-acetic acid], the EC50 is 17 nM.
For “((S)-6-{(R)-4-[4-((R)-1,1-Dioxo- tetrahydro-1-thiophen-3- ylmethoxy)-2,6-dimethyl- phenyl]-7-fluoro-indan-1- yloxy}-2,3-dihydro-benzofuran- 3-yl)-acetic acid [Example 47]” the value was 8 nM; for `Cc1cc(-c2nnn(CC(C)(C)O)n2)cc(C)c1-c1ccc(F)c2c1CC[C@H]2Oc1ccc2c(c1)OC[C@H]2CC(=O)O` [Example 98, 2-((S)-6-((R)-7-Fluoro-4-(4-(2-(2-hydroxy-2-methylpropyl)-2H-tetrazol-5-yl)-2,6-dimethylphenyl)-2,3-dihydro-1H-inden-1-yloxy)-2,3-dihydrobenzofuran-3-yl)acetic acid], 3 nM; for `Cc1cc(-c2cnn(CC(C)(C)O)c2)cc(C)c1-c1ccc(F)c2c1CC[C@H]2Oc1ccc2c(c1)OC[C@H]2CC(=O)O` [Example 83, 2-((S)-6-((R)-7-Fluoro-4-(4-(1-(2-hydroxy-2-methylpropyl)-1H-pyrazol-4-yl)-2,6-dimethylphenyl)-2,3-dihydro-1H-inden-1-yloxy)-2,3-dihydrobenzofuran-3-yl)acetic acid], 6 nM.
For `Cc1cc(OC2CCS(=O)(=O)N(C)C2)cc(C)c1-c1ccc(F)c2c1CC[C@H]2Oc1ccc2c(c1)OC[C@H]2CC(=O)O` (stereo partly drawn) [Example 42, ((S)-6-{(R)-4-[2,6-Dimethyl-4-(2-methyl-1,1-dioxo-1-[1,2]thiazinan-4-yloxy)-phenyl]-7-fluoro-indan-1-yloxy}-2,3-dihydro-benzofuran-3-yl)-acetic acid] the value was 11 nM.
The same measure for `Cc1cc(-c2cc(=O)n(C)cn2)cc(C)c1-c1ccc(F)c2c1CC[C@H]2Oc1ccc2c(c1)OC[C@H]2CC(=O)O` [Example 88, 2-((S)-6-((R)-4-(2,6-Dimethyl-4-(1-methyl-6-oxo-1,6-dihydropyrimidin-4-yl)phenyl)-7-fluoro-2,3-dihydro-1H-inden-1-yloxy)-2,3-dihydrobenzofuran-3-yl)acetic acid]: 3 nM.
For `Cc1cc(OCC2(O)CCS(=O)(=O)CC2)cc(C)c1-c1ccc(F)c2c1CC[C@H]2Oc1ccc2c(c1)OC[C@H]2CC(=O)O` [Example 69, 2-((S)-6-((R)-7-Fluoro-4-(4-((1,1-dioxo-4-hydroxytetrahydro-2H-thiopyran-4-yl)methoxy)-2,6-dimethylphenyl)-2,3-dihydro-1H-inden-1-yloxy)-2,3-dihydrobenzofuran-3-yl)acetic acid], the EC50 was 8 nM.
For the molecule `Cc1cc(-c2cc(C)c(-c3ccc(F)c4c3CC[C@H]4Oc3ccc4c(c3)OC[C@H]4CC(=O)O)c(C)c2)nc(C)n1` [Example 115, {(S)-6-[(R)-4-(2,6-Dimethyl-4-(2,6-dimethyl-pyrimidin-4-yl)-phenyl)-7-fluoro-indan-1-yloxy]-2,3-dihydro-benzofuran-3-yl}-acetic acid], the half-maximal effective concentration (EC50) amounted to 2 nM.
`Cc1cc(OCc2nccn2C)cc(C)c1-c1ccc(F)c2c1CC[C@H]2Oc1ccc2c(c1)OC[C@H]2CC(=O)O` [Example 149, 2-((S)-6-((R)-4-(2,6-dimethyl-4-((1-methyl-1H-imidazol-2-yl)methoxy)phenyl)-7-fluoro-2,3-dihydro-1H-inden-1-yloxy)-2,3-dihydrobenzofuran-3-yl)acetic acid] registered a concentration for a half-maximal effect (EC50) of 12 nM.
The same measure for `Cc1cc(OCC(C)(C)CS(C)(=O)=O)cc(C)c1-c1ccc(F)c2c1CC[C@H]2Oc1ccc2c(c1)OC[C@H]2CC(=O)O` [Example 77, 2-((S)-6-((R)-4-(4-(2,2-Dimethyl-3-(methylsulfonyl)propoxy)-2,6-dimethylphenyl)-7-fluoro-2,3-dihydro-1H-inden-1-yloxy)-2,3-dihydrobenzofuran-3-yl)acetic acid]: 10 nM; for `CN(C)C(=O)c1ccccc1-c1ccc(F)c2c1CC[C@H]2Oc1ccc2c(c1)OC[C@H]2CC(=O)O` [Example 102, 2-((3S)-6-((1R)-4-(2-(Dimethylcarbamoyl)phenyl)-7-fluoro-2,3-dihydro-1H-inden-1-yloxy)-2,3-dihydrobenzofuran-3-yl)acetic acid]: 2240 nM; for `Cc1cc(OCc2ccn(C)n2)cc(C)c1-c1ccc(F)c2c1CC[C@H]2Oc1ccc2c(c1)OC[C@H]2CC(=O)O` [Example 145, 2-((S)-6-((R)-4-(2,6-dimethyl-4-((1-methyl-1H-pyrazol-3-yl)methoxy)phenyl)-7-fluoro-2,3-dihydro-1H-inden-1-yloxy)-2,3-dihydrobenzofuran-3-yl)acetic acid]: 15 nM.
The same measure for `Cc1cc(OC(C)(C)C(N)=O)cc(C)c1-c1ccc(F)c2c1CC[C@H]2Oc1ccc2c(c1)OC[C@H]2CC(=O)O` [Example 56, ((S)-6-{(R)-4-[4-(1-Carbamoyl-1-methyl-ethoxy)-2,6-dimethyl-phenyl]-7-fluoro-indan-1-yloxy}-2,3-dihydro-benzofuran-3-yl)-acetic acid]: 43 nM; for `Cc1cc(CCNS(C)(=O)=O)cc(C)c1-c1ccc(F)c2c1CC[C@H]2Oc1ccc2c(c1)OC[C@H]2CC(=O)O` [Example 74, 2-((S)-6-((R)-4-(2,6-dimethyl-4-(2-(methylsulfonamido)ethyl)phenyl)-7-fluoro-2,3-dihydro-1H-inden-1-yloxy)-2,3-dihydrobenzofuran-3-yl)acetic acid]: 40 nM.
For `Cc1cc(-c2ccn(C)c(=O)c2)cc(C)c1-c1ccc(F)c2c1CC[C@H]2Oc1ccc2c(c1)OC[C@H]2CC(=O)O` [Example 84, 2-((S)-6-((R)-4-(2,6-Dimethyl-4-(1-methyl-2-oxo-1,2-dihydropyridin-4-yl)phenyl)-7-fluoro-2,3-dihydro-1H-inden-1-yloxy)-2,3-dihydrobenzofuran-3-yl)acetic acid] the value was 9 nM; for `O=C(O)C[C@@H]1COc2cc(O[C@@H]3CCc4c(-c5cccnc5-c5ccoc5)ccc(F)c43)ccc21` [Example 105, {(S)-6-[(R)-7-Fluoro-4-(2-furan-3-yl-pyridin-3-yl)-indan-1-yloxy]-2,3-dihydro-benzofuran-3-yl}-acetic acid], 582 nM.
The molecule `COc1cnnc(-c2cc(C)c(-c3ccc(F)c4c3CC[C@H]4Oc3ccc4c(c3)OC[C@H]4CC(=O)O)c(C)c2)c1` [Example 129, {(S)-6-[(R)-4-(2,6-Dimethyl-4-(5-methoxy-pyridazin-3-yl)-phenyl)-7-fluoro-indan-1-yloxy]-2,3-dihydro-benzofuran-3-yl}-acetic acid] yielded an EC50 of 4 nM.
The same measure for `Cc1cc(-c2noc(C(C)(C)O)n2)cc(C)c1-c1ccc(F)c2c1CC[C@H]2Oc1ccc2c(c1)OC[C@H]2CC(=O)O` [Example 136, {(S)-6-[(R)-4-(2,6-Dimethyl-4-(5-[2-hydroxy-prop-2-yl]-[1,2,4]oxadiazol-3-yl)-phenyl)-7-fluoro-indan-1-yloxy]-2,3-dihydro-benzofuran-3-yl}-acetic acid]: 3 nM.
Consider `Cc1cc(OC[C@@H](C)CS(C)(=O)=O)cc(C)c1-c1ccc(F)c2c1CC[C@H]2Oc1ccc2c(c1)OC[C@H]2CC(=O)O` [Example 36, ((S)-6-{(R)-7-Fluoro-4-[4-((R)-3-methanesulfonyl-2-methyl-propoxy)-2,6-dimethyl-phenyl]-indan-1-yloxy}-2,3-dihydro-benzofuran-3-yl)-acetic acid], for which a half-maximal effect (EC50) was put at 8 nM.
The same measure for `Cc1cc(C2CCOC2)cc(C)c1-c1ccc(F)c2c1CC[C@H]2Oc1ccc2c(c1)OC[C@H]2CC(=O)O` (stereo partly drawn) [Example 87, 2-((3S)-6-((1R)-4-(2,6-Dimethyl-4-(tetrahydrofuran-3-yl)phenyl)-7-fluoro-2,3-dihydro-1H-inden-1-yloxy)-2,3-dihydrobenzofuran-3-yl)acetic acid]: 24 nM.
